Reference: US10662193B2, “Carbazole and carboline compounds for use in the diagnosis, treatment, alleviation or prevention of disorders associated with amyloid or amyloid-like proteins” (AC IMMUNE SA, priority 2014, dated 2020)
Like-named read-outs stand apart in the source and are kept apart here.

Assays:
[1] = system: tau tangles/Aβ plaques on AD brain sections; test: Assay 1: direct staining of human Alzheimer's disease brain sections (fluorescence); format: binding; set-up: key to Direct staining of tau tangles/Aβ plaques on AD brain sections at 100 μM / Direct staining of tau tangles on AD brain sections at 100 μM / Direct staining of Aβ plaques on AD brain sections at 100 μM / Direct staining of tau tangles on AD brain sections (footnote a: at 250 μM): − (No); +++ (strong); ++ (good); + (weak); conditions: 100 μM compound; tangles
Summary of the method: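 Frozen […] amygdala sections from Braak V-VI AD donors, PFA-fixed, incubated with compound at 100 μM in 50% ethanol for 20 min at room temperature in the dark. Sudan Black quenched autofluorescence, then staining detected by fluorescence microscopy.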

[2] = system: Aβ plaques on AD brain section; test: Assay 1: displacement of Compound B on human AD brain sections (fluorescence); format: binding
Protocol: Direct Binding of Compounds of this Invention to Human Alzheimer's Disease Brain Sections and/or Displacement of RefA and Compound B Frozen sections with a thickness of […] from the amygdala of donors diagnosed with Braak stage V-VI Alzheimer's Disease (Braak, H.; Braak, E. Acta Neuropathol., 1991, 82, 239-259), were purchased from a commercial provider (Tissue Solutions) and kept at -80° C. until use. Displacement of RefA and Compound B Brain sections were mainly treated as described above. Test compounds were, however, incubated on the section at 250 μM in 50% ethanol for 20 min at room temperature, and then directly incubated with the fluorescent reference compounds RefA and Compound B, each at 1 μM in 50% ethanol for 20 min at room temperature. RefA and Compound B stainings were visualized using the 470 nm and 365 nm excitation filters, respectively. Images were acquired, and tangles and plaques quantified using the NIS-Element software. Only those compounds not directly staining tangles or plaques at the same wavelengths as RefA and Compound B were tested in the displacement assay. Structure of Compound B (prepared by a similar procedure described for […] in WO2010/011964): […]

[3] = target: Tau enriched paired helical filaments (PHF) from human Alzheimer's disease (AD) brains (Homo sapiens, UniProt P10636); test: Assay 3: backscattering interferometry, dissociation constants (Kd); format: binding
Tau enriched paired helical filaments (PHF) from human Alzheimer's disease (AD) brains, sequence (P10636 623-708 limits assumed): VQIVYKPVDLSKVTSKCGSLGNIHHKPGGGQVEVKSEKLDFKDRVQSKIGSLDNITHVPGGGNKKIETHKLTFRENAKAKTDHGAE
Description: Assay 3 (Backscattering Interferometry):
Determination of Dissociation Constants (Kd) of Compounds of this Invention
Enrichment of Paired Helical Filaments (PHF's) from Human Alzheimer's Disease Brains
For backscattering interferometry, Tau enriched paired helical filaments (PHF) from human Alzheimer's disease (AD) brains were used as a target. Due to the limited availability of tissues, to determine dissociation constants (Kd) of compounds of this invention to the target, two different batches of enriched PHF were used. These batches are identified as batch 6 and 7 and were prepared as follows.
PHF batch number 6 was prepared starting from 25 g frontal cortical tissue from post-mortem brains of 25 Alzheimer's disease (AD) patients which were obtained from the London Tissue Bank. The mean age at death for the AD patients was 76 years (48% females). Brain samples were characterized for Braak disease stage (Braak and Braak, 1991), with most donors displaying a stage VI. The postmortem interval between death and brain dissection was between 6 and 65 h. Human brain homogenates were prepared by SB Drug Discovery (Glasgow, Scotland, UK) from the post-mortem cortical tissue of the 25 patients). Each tissue (1 g) was homogenized with a Dounce glass homogenizer in 1.5 mL 100 mM 2-(N-morpholino) ethane-sulfonic acid (MES) pH 6.8, 0.75 M NaCl, 1 mM EGTA, 0.5 mM MgSO4, 2 mM DTT containing protease inhibitors (Complete; Roche 11697498001). For each sample, two aliquots containing 0.5 g brain homogenates in 0.75 mL were shipped to AC Immune SA on dry ice and stored at −80° C. For the enrichment of PHF, 1 aliquot per donor corresponding to total 12.5 g of brain tissue were thawed on ice and then incubated at 4° C. for 20 min to depolymerize any residual microtubules. All samples were then pooled and transferred to three polycarbonate centrifuge bottles (16×76 mm; Beckman 355603).
PHF batch number 7 was prepared starting from 32 g of parietal cortex tissue from post-mortem brain of one Alzheimer's disease (AD) patient was obtained from an external provider (Tissue Solution). The patient was a person who died for end stage AD. The brain sample was collected 5 h post-mortem and characterized for Braak disease stage (Braak and Braak, 1991) as stage VI. The method used for the PHF enrichment was modified from published procedures (Jicha et al., 1997; Rostagno and Ghiso, 2009). Around 16 g of the AD human brain was thawed on ice and homogenized with 50 ml of homogenization buffer [0.75 M NaCl in RAB buffer (100 mM 2-(N-morpholino) ethanesulfonic acid (MES), 1 mM EGTA, 0.5 mM MgSO4, 2 mM DTT, pH 6.8) supplemented with protease inhibitors (Complete; Roche 11697498001)] in a glass Dounce homogenizer. The homogenate was then incubated at 4° C. for 20 min to let depolymerize any residual microtubules, before being transferred into polycarbonate centrifuge bottles (16×76 mm; Beckman 355603). For both purifications, brain homogenates were then centrifuged at 11,000 g (12,700 RPM) in an ultracentrifuge (Beckman, XL100K) for 20 min at 4° C. using the pre-cooled 70.1 rotor (Beckman, 342184). Pellets were kept on ice. Supernatants were pooled into polycarbonate bottles and centrifuged again at 100,000 g (38,000 RPM) for 1 h at 4° C. in the 70.1 Ti rotor to isolate PHF-rich pellets, whereas soluble Tau remained in the supernatants. The pellets from the first and second centrifugations were resuspended in 120 mL of extraction buffer [10 mM Tris-HCl pH 7.4, 10% sucrose, 0.85 M NaCl, 1% protease inhibitor (Calbiochem 539131), 1 mM EGTA, 1% phosphatase inhibitor (Sigma P5726 and P0044)]. The solution was then transferred into polycarbonate centrifuge bottles (16×76 mm; Beckman 355603) and centrifuged at 15,000 g (14,800 RPM) in an ultracentrifuge (Beckman, XL100K) for 20 min at 4° C. using the 70.1 Ti rotor. […]

[4] = system: human brain slices from the frontal and/or temporal lobes of AD patients; test: Autoradiography with 18F-labeled compounds using human brain tissue; format: binding; conditions: FIG. 14; for competition with amyloid binding compound: block with an amyloid binding compound; for competition with corresponding cold compound: blocking compound 10 μM
Protocol: Autoradiography Using Human Brain Tissue
(§1) 18 micron thick frozen human brain slices and 6 micron thick human FFPE brain slices from the frontal and/or temporal lobes of AD patients were examined via autoradiography. Brain sections were equilibrated for at least 1 h in 1×PBS solution prior to use in the experiment. Each brain section was covered with a solution of the F-18 labeled tracer (200 Bq/μl, 500 μl) in 1×PBS. For blocking experiments with the corresponding 19F-labeled compound, an excess of the blocking compound was mixed with the 18F-compound to yield an end concentration of 10 μM. The brain sections were allowed to incubate with the tracer solution at room temperature for 1 h, drained afterwards and placed in a slide holder. The slides were then washed sequentially with 1×PBS for 1 min; 70% EtOH in 1×PBS for 2 min; 30% EtOH in 1×PBS for 2 min; and 1×PBS for 1 min. The slides were allowed to air-dry before being placed on Fuji imaging plates for overnight exposure. The imaging plates were scanned and the signal was measured using Fuji software to produce an autoradiographic image of the brain section. Representative examples of autoradiography studies with ^18F-178, ^18F-189, ^18F-161, ^18F-95, ^18F-168, ^18F-146, ^18F-156, ^18F-159 are shown in FIGS. 9 to 12.
The specificity of the signals was confirmed by blocking with an excess of the corresponding non-radioactive compounds.

[5] = system: tau tangles on AD brain section; test: Assay 1: displacement of RefA on human AD brain sections (fluorescence); format: binding; conditions: for Selectivity (tau/Abeta): ratio of competition on tau tangles to competition on Aβ plaques
Summary of the method: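 Braak V-VI AD amygdala frozen sections were preincubated with test compound at 250 μM in 50% ethanol for 20 min at room temperature. Fluorescent RefA at 1 μM in 50% ethanol was then added for 20 min, imaged at 470 nm excitation, and tangles were quantified.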

amyloid-beta = test: Autoradiography on human brain sections with an 18F amyloid binding compound (selectivity); conditions: FIG. 13
Protocol: as §1, with “12. […] Additionally, selectivity was determined by using a tracer binding to amyloid-beta.” for “12.”

[6] = PHF batch 7 (parietal cortex, one AD patient), read-out: [Kd] on PHF batch 7
[7] = PHF batch 6 (pooled frontal cortex, 25 AD patients), read-out: [Kd] on PHF batch 6

Structure (SMILES)	Direct staining of tau tangles on AD brain sections at 100 μM [1]	competition with amyloid binding compound [4]	competition with corresponding cold compound [4]	further results
Cn1c2ccncc2c2ccc(N3CC4(CC(F)C4)C3)nc21 [Example 146]	++ (tangles)			Competition on AD brain section Aβ plaques (1 μM Compound B vs 250 μM compound) [2]: 0%; Kd [3, 6]: 40 ± 10 nM
Cn1c2ccncc2c2ccc(N3CC[C@H]([18F])C3)nc21 [^18F-160]		no competition	Competition observed	
Cn1c2ccncc2c2ccc(N3CCN(CC[18F])CC3)nc21 [^18F-168]		no competition	Competition observed	
Cn1c2ccncc2c2ccc(N3CCC(OCC[18F])CC3)nc21 [^18F-156]		no competition	Competition observed	
Cn1c2ccncc2c2ccc(N3CCN(CCF)CC3)nc21 [168 Step B]	++ (tangles)			Competition on AD brain section Aβ plaques (1 μM Compound B vs 250 μM compound) [2]: −1%; Kd [3, 6]: 160 ± 30 nM
Cn1c2ccncc2c2ccc(N3CCC(OCCOCC[18F])CC3)nc21 [^18F-152]		no competition	Competition observed	
Cn1c2ccncc2c2ccc(N3CCC(F)CC3)nc21 [Example 161]	+ (tangles)			Competition on AD brain section tau tangles (1 μM RefA vs. 250 μM compound) [5]: 85%; Selectivity (tau/Abeta) [5]: ~6-fold; Competition on AD brain section Aβ plaques (1 μM Compound B vs 250 μM compound) [2]: 14%; Kd [3, 7]: 18 ± 3 nM
Cn1c2ccncc2c2ccc(N3CCC([18F])CC3)nc21 [^18F-161]		no competition	Competition observed	
Cn1c2ccncc2c2ccc(N3CC4(CC(OCCOCCOCCF)C4)C3)nc21 [Example 153]	++ (tangles)			Kd [3, 7]: 20 ± 5 nM
Cn1c2ccncc2c2ccc(N3CCC(OCCF)CC3)nc21 [Example 156]	+ (tangles)			Competition on AD brain section tau tangles (1 μM RefA vs. 250 μM compound) [5]: 72%; Selectivity (tau/Abeta) [5]: >72 fold; Competition on AD brain section Aβ plaques (1 μM Compound B vs 250 μM compound) [2]: −8%; Kd [3, 7]: 26 ± 7 nM
Cn1c2ccncc2c2ccc(Nc3cncc(OCC[18F])c3)nc21 [^18F-59]				competition with ^18F amyloid binding compound (amyloid-beta): no competition
Cn1c2ccncc2c2ccc(Nc3cccc(F)n3)nc21 [Example 28]	+ (tangles)			Kd [3, 6]: 400 ± 60 nM
Cn1c2ccncc2c2ccc(Nc3cccc(OCC[18F])c3)nc21 [^18F-44]				competition with ^18F amyloid binding compound (amyloid-beta): no competition
CN1CCc2c(c3ccc(Nc4cccc(OCCF)c4)nc3n2C)C1=O [Example 189]	++ (tangles)			Kd [3, 7]: 16 ± 3 nM
